Results: the supplement of paper PMC5908809

Tests used:
[1] = system: YT (IL-2 2.5 ng/mL); assay: percent inhibition of viability; higher = more inhibition; conditions: 72 h
[2] = system: NK-92 (IL-2 2.5 ng/mL); assay: as above; conditions: 72 h
[3] = system: normal primary NK cells, pool 1 (3 donors), resting (IL-2 0 ng/mL); assay: as above; conditions: 72 h
[4] = system: IMC-1 (IL-2 20 ng/mL); assay: as above; conditions: 72 h
[5] = system: normal primary NK cells, pool 1 (3 donors) (IL-2 2.5 ng/mL); assay: as above; conditions: 72 h
[6] = system: NK-YS (IL-2 2.5 ng/mL); assay: as above; conditions: 72 h
[7] = system: NKL (IL-2 2.5 ng/mL); assay: as above; conditions: 72 h
[8] = system: normal primary NK cells, pool 3 (3 donors) (IL-2 2.5 ng/mL); assay: as above; conditions: 72 h
[9] = system: KHYG-1 (IL-2 2.5 ng/mL); assay: as above; conditions: 72 h
[10] = system: KAI3 (IL-2 2.5 ng/mL); assay: as above; conditions: 72 h
[11] = system: SNK-6 (IL-2 2.5 ng/mL); assay: as above; conditions: 72 h
[12] = system: normal primary NK cells, pool 2 (3 donors) (IL-2 2.5 ng/mL); assay: as above; conditions: 72 h
[13] = system: DERL-7 (IL-2 2.5 ng/mL); assay: as above; conditions: 72 h
[14] = system: normal NK cells expanded with K562-aAPC; assay: as above; conditions: 72 h, IL-2 2.5 ng/mL
Method: (§1)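 Drug sensitivity and resistance testing on K562-aAPC-expanded normal NK cells: 5 concentrations (10-fold steps over a 10,000-fold range), 72 h at 37 °C, viability by CellTiter-Glo normalised to DMSO and benzethonium chloride controls; DSS from the fitted curve.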

[15] = system: normal NK cells expanded with K562-aAPC; assay: drug sensitivity score (DSS) (DSS units); higher = more sensitive; extreme values may be limits of the assay; conditions: 72 h; IL-2 2.5 ng/mL
Method: as §1

[16] = system: YT (IL-2 2.5 ng/mL); assay: as above; conditions: 72 h
[17] = system: NK-92 (IL-2 2.5 ng/mL); assay: as above; conditions: 72 h
[18] = system: normal primary NK cells, pool 1 (3 donors), resting (IL-2 0 ng/mL); assay: as above; conditions: 72 h
[19] = system: IMC-1 (IL-2 20 ng/mL); assay: as above; conditions: 72 h
[20] = system: normal primary NK cells, pool 1 (3 donors) (IL-2 2.5 ng/mL); assay: as above; conditions: 72 h
[21] = system: NK-YS (IL-2 2.5 ng/mL); assay: as above; conditions: 72 h
[22] = system: NKL (IL-2 2.5 ng/mL); assay: as above; conditions: 72 h
[23] = system: normal primary NK cells, pool 3 (3 donors) (IL-2 2.5 ng/mL); assay: as above; conditions: 72 h
[24] = system: KHYG-1 (IL-2 2.5 ng/mL); assay: as above; conditions: 72 h
[25] = system: KAI3 (IL-2 2.5 ng/mL); assay: as above; conditions: 72 h
[26] = system: SNK-6 (IL-2 2.5 ng/mL); assay: as above; conditions: 72 h
[27] = system: normal primary NK cells, pool 2 (3 donors) (IL-2 2.5 ng/mL); assay: as above; conditions: 72 h
[28] = system: DERL-7 (IL-2 2.5 ng/mL); assay: as above; conditions: 72 h

C=CCNC1=C2C[C@@H](C)C[C@H](OC)[C@H](O)[C@@H](C)/C=C(\C)[C@H](OC(N)=O)[C@@H](OC)/C=C\C=C(/C)C(=O)NC(=CC1=O)C2=O [Tanespimycin] (max concentration tested 10000 nM)
percent inhibition of viability [%]
Conditions	1 nM	10 nM	100 nM	1000 nM	10000 nM
[1]	-5.76	-8.38	13.2	94.7	101
[2]	-11.8	-0.27	37.7	99.1	100
[3]	-6.62	18.1	28.8	51.2	69.4
[4]	-1.67	0.76	3.61	99.8	101
[5]	1.58	12.9	49.5	87.4	92.3
[6]	-3.46	-0.46	63.4	103	105
[7]	-8.98	-11.1	73.2	91.9	91.2
[8]	-2.89	-1.44	15.4	76.7	89.1
[9]	-4.47	0.32	7.33	103	106
[10]	0.55	5.14	60.9	104	105
[11]	3.74	-19.1	41.6	87.7	89.8
[12]	-2.56	2.25	36.4	80	85.7
[13]	0.9	-1.85	35.9	101	101
[14]	-6.12	-2.4	32.3	99.3	100

Conditions	drug sensitivity score
[15]	22.6
[16]	19.1
[17]	23.1
[18]	14
[19]	18.4
[20]	22.4
[21]	25.4
[22]	25
[23]	16
[24]	19.3
[25]	25.3
[26]	21.6
[27]	19.2
[28]	23

Nc1nc2[nH]cnc2c(=S)[nH]1 [Thioguanine] (max concentration tested 10000 nM)
percent inhibition of viability [%]
Conditions	1 nM	10 nM	100 nM	1000 nM	10000 nM
[1]	-6.35	-2.99	5.94	87.9	105
[2]	-10.2	-5.6	17.5	52.7	98.4
[3]	1.38	16.6	9.25	15.6	37.5
[4]	-5.55	-1.21	-1.21	33.3	97.2
[5]	2.84	12.9	10.3	6.9	52.7
[6]	-7.28	-5.53	13.5	84.7	95.8
[7]	-14	-21.1	1.79	26.9	93.4
[8]	-3.74	-0.43	9.27	10.8	44
[9]	-13.1	-8.14	-0.41	99.5	106
[10]	-7.74	-2.97	-0.62	15.1	78.8
[11]	-10.4	-12.3	-12.4	52.4	96.7
[12]	-0.91	-2.84	9.06	9.05	55
[13]	-5.49	1.22	-5.6	8.62	87.2
[14]	-4.14	-5.02	-5.79	6.11	56.7

Conditions	drug sensitivity score
[15]	4.06
[16]	16.8
[17]	12.4
[18]	4.42
[19]	10
[20]	3.98
[21]	17.2
[22]	9.15
[23]	3.64
[24]	17.9
[25]	6.83
[26]	11.7
[27]	4.48
[28]	6.23

C[C@@H]1CCN(C(=O)CC#N)C[C@@H]1N(C)c1ncnc2[nH]ccc12 [Tofacitinib] (max concentration tested 5000 nM)
percent inhibition of viability [%]
Conditions	0.5 nM	5 nM	50 nM	500 nM	5000 nM
[1]	-1.31	-0.82	0.63	46.5	64.1
[2]	-2.4	-2.12	17.6	66.9	80.8
[3]	-2.2	-5.26	-18	7.52	-1.29
[4]	-6.11	-7.94	-16.8	34.5	92.1
[5]	-7	-4.5	19.9	68.1	69.8
[6]	-1.06	4.19	22	56.2	67.5
[7]	-18.4	5	56.6	78.2	86.8
[8]	-10.3	-4.27	6.35	48.6	60.7
[9]	-4.2	2.4	59.4	100	98.6
[10]	-5.21	10.5	45.3	82.7	85.5
[11]	-3.6	10	22.4	80.2	77.1
[12]	-14	-8.22	19.6	60.2	67
[13]	4.68	5.82	37.9	76.5	100
[14]	0.56	-0.5	34.7	89.7	96.1

Conditions	drug sensitivity score
[15]	20.7
[16]	8.99
[17]	14.5
[18]	0
[19]	9.8
[20]	15.6
[21]	13
[22]	22.6
[23]	9.81
[24]	25.1
[25]	20.8
[26]	17.6
[27]	13.7
[28]	19.1

COc1cccc2cc(-c3nc([C@H]4CC[C@H](C(=O)O)CC4)n4ncnc(N)c34)[nH]c12 [OSI-027] (max concentration tested 10000 nM)
percent inhibition of viability [%]
Conditions	1 nM	10 nM	100 nM	1000 nM	10000 nM
[1]	2.96	3.52	7.55	26.5	62.3
[2]	2.75	14.2	11.7	37.3	67
[3]	-7.98	3.28	-0.52	18.1	13
[4]	-0.57	-5.79	-6.31	-24.6	15.6
[5]	-9.22	7.53	-13.9	16.4	24.5
[6]	-5.3	-6.22	3.24	12.3	67.8
[7]	-11.8	-3.21	15.2	49.5	66
[8]	-5.61	1.81	2.65	24.4	23.8
[9]	-1.84	-0.78	4.77	18.4	68.1
[10]	-2.08	0.41	9.85	34.9	65.5
[11]	4.93	11.4	9.18	31.7	55.4
[12]	-8.05	-2.56	3.22	27.2	24.8
[13]	7.51	-0.27	4.62	33.3	81.3
[14]	-6.22	-5.68	3.76	21.5	48.2

Conditions	drug sensitivity score
[15]	4.91
[16]	6.33
[17]	8.91
[18]	2.18
[19]	0.09
[20]	2.65
[21]	5.77
[22]	10.9
[23]	4.17
[24]	6.5
[25]	7.92
[26]	7.2
[27]	4.93
[28]	8.48

C#Cc1cccc(Nc2ncnc3cc(OC)c(OCCCCCCC(=O)NO)cc23)c1 [CUDC-101] (max concentration tested 10000 nM)
percent inhibition of viability [%]
Conditions	1 nM	10 nM	100 nM	1000 nM	10000 nM
[1]	0.23	0.94	9.37	95.4	106
[2]	9.73	-1.07	19.2	85.7	105
[3]	10.4	0.86	30.2	78.6	92.4
[4]	-4.07	-5.13	-1.06	48.9	101
[5]	-3.28	-4.06	12.8	88.8	98.8
[6]	-4.37	0.36	0.68	57.3	105
[7]	-15.6	-12.1	1.83	90.5	108
[8]	-12	1.9	2.2	82.8	99.5
[9]	1.82	3.01	36.4	99.1	106
[10]	-3.15	0.88	27.8	77.2	105
[11]	11.7	10.8	24.7	78.1	100
[12]	-9.31	-5.49	9.37	84.5	97
[13]	-3.07	-2.96	19.3	100	101
[14]	-2.26	1.39	1.83	75.4	101

Conditions	drug sensitivity score
[15]	14.3
[16]	18.8
[17]	18.1
[18]	18.1
[19]	11.6
[20]	17.9
[21]	12.4
[22]	16.5
[23]	15.3
[24]	22.6
[25]	17.9
[26]	17.6
[27]	16.7
[28]	21.1
